Laboratory results reported in PubChem BioAssay AID192 (DTP/NCI, 2004).
Values joined by “and” are separate entries in the source; they are usually repeats but may differ in a detail not shown here. Equal entries are not always repeated. Inconclusive results and toxic doses are left out. Rule for the calls: active = survival T/C of 150% or more; inactive = T/C below 125% in these data. Peptide text beside a SMILES is read from it. * marks the point of attachment. Cbz = O=C(OCc1ccccc1)*

Tested on: BDF1 mice, B16 melanoma ip, median survival T/C
Assay: NCI In Vivo Anticancer Drug Screen. Data for tumor model B16 Melanoma (intraperitoneal) in B6D2F1 (BDF1) mice
Conditions: endpoint: median survival time, higher = longer survival
Procedure, shortened: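 Mice with transplantable tumors; drug vs vehicle groups; endpoint survival or tumor size; value = T/C.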

[1] = dose: 12.5 mg/kg/injection, schedule: Q01DX009 (ip), vehicle: Klucel (hydroxypropylcellulose) (HPC)
[2] = dose: 25.0 mg/kg/injection, schedule: Q01DX009 (ip), vehicle: Klucel (hydroxypropylcellulose) (HPC)
[3] = dose: 50.0 mg/kg/injection, schedule: Q01DX009 (ip), vehicle: Klucel (hydroxypropylcellulose) (HPC)
[4] = dose: 100.0 mg/kg/injection, schedule: Q01DX009 (ip), vehicle: Klucel (hydroxypropylcellulose) (HPC)
[5] = dose: 12.5 mg/kg/injection, schedule: Q01DX009 (ip), vehicle: saline with Tween-80
[6] = dose: 25.0 mg/kg/injection, schedule: Q01DX009 (ip), vehicle: saline with Tween-80
[7] = dose: 50.0 mg/kg/injection, schedule: Q01DX009 (ip), vehicle: saline with Tween-80
[8] = dose: 100.0 mg/kg/injection, schedule: Q01DX009 (ip), vehicle: saline with Tween-80
[9] = dose: 100.0 mg/kg/injection, schedule: Q04DX003 (ip), vehicle: Klucel (hydroxypropylcellulose) (HPC)
[10] = dose: 12.5 mg/kg/injection, schedule: Q04DX003 (ip), vehicle: saline
[11] = dose: 25.0 mg/kg/injection, schedule: Q04DX003 (ip), vehicle: saline
[12] = dose: 50.0 mg/kg/injection, schedule: Q04DX003 (ip), vehicle: saline
[13] = dose: 100.0 mg/kg/injection, schedule: Q04DX003 (ip), vehicle: saline
[14] = dose: 200.0 mg/kg/injection, schedule: Q04DX003 (ip), vehicle: saline
[15] = dose: 5.0 mg/kg/injection, schedule: Q01DX009 (ip), vehicle: Klucel (hydroxypropylcellulose) (HPC)
[16] = dose: 10.0 mg/kg/injection, schedule: Q01DX009 (ip), vehicle: Klucel (hydroxypropylcellulose) (HPC)
[17] = dose: 12.5 mg/kg/injection, schedule: Q01DX009 (ip), vehicle: saline
[18] = dose: 25.0 mg/kg/injection, schedule: Q01DX009 (ip), vehicle: saline
[19] = dose: 100.0 mg/kg/injection, schedule: Q01DX009 (ip), vehicle: saline
[20] = dose: 37.5 mg/kg/injection, schedule: Q01DX009 (ip), vehicle: saline with Tween-80

Measured: T/C

Cc1c(Cl)cccc1NC(=O)Nc1ccc(Cl)c(Cl)c1
inactive: [1] 105 % of control | [2] 92 % of control | [3] 91 % of control

FC1(F)SC2C3CC(C4CCC=C43)C2C1(F)F (centres undefined)
inactive: dose: 0.39 mg/kg/injection, schedule: Q01DX009 (ip), vehicle: Klucel (hydroxypropylcellulose) (HPC) 89 % of control | dose: 0.78 mg/kg/injection, schedule: Q01DX009 (ip), vehicle: Klucel (hydroxypropylcellulose) (HPC) 103 % of control

COC(=O)C1=C(O)CN(C)C1=O
inactive: dose: 37.5 mg/kg/injection, schedule: Q04DX003 (ip), vehicle: saline 102 % of control | dose: 75.0 mg/kg/injection, schedule: Q04DX003 (ip), vehicle: saline 100 % of control | dose: 150.0 mg/kg/injection, schedule: Q04DX003 (ip), vehicle: saline 108 % of control

O=C(O)c1cc2oc3ccccc3c2cc1O
inactive: [3] 116 % of control | [4] 110 % of control

C/C=C/c1cc2c(c(=O)o1)C(=O)[C@@H](O)[C@H](C)O2
inactive: [5] 95 % of control | [6] 90 % of control | [7] 95 % of control | [8] 110 % of control

COc1c(C)c2c(c(O)c1C/C=C(\C)CCC(=O)O)C(=O)OC2
inactive: dose: 6.25 mg/kg/injection, schedule: Q01DX009 (ip), vehicle: distilled water + Tween-80 96 % of control | dose: 12.5 mg/kg/injection, schedule: Q01DX009 (ip), vehicle: distilled water + Tween-80 95 % of control | dose: 25.0 mg/kg/injection, schedule: Q01DX009 (ip), vehicle: distilled water + Tween-80 107 % of control | dose: 50.0 mg/kg/injection, schedule: Q01DX009 (ip), vehicle: distilled water + Tween-80 94 % of control | dose: 100.0 mg/kg/injection, schedule: Q01DX009 (ip), vehicle: distilled water + Tween-80 104 % of control | dose: 200.0 mg/kg/injection, schedule: Q01DX009 (ip), vehicle: distilled water + Tween-80 104 % of control

c1ccc(CSc2ncnc3nc[nH]c23)cc1
inactive: [2] 95 % of control | dose: 25.0 mg/kg/injection, schedule: Q04DX003 (ip), vehicle: Klucel (hydroxypropylcellulose) (HPC) 95 % of control | dose: 50.0 mg/kg/injection, schedule: Q04DX003 (ip), vehicle: Klucel (hydroxypropylcellulose) (HPC) 100 % of control | [9] 97 % of control

COC(=O)CNC(=O)C(NC(=O)C1CCCN1C(=O)OCc1ccccc1)C(C)C (stereo not drawn) (Cbz-Pro-Val-Gly-OMe; configuration not given here)
inactive: [7] 91 % of control | [8] 88 % of control

CS(=O)(=O)OCCCOS(C)(=O)=O
inactive: [1] 91 % of control

CC1NC(=O)COC1c1ccccc1 (centres undefined)
inactive: [1] 95 % of control | [10] 95 % of control | [2] 95 % of control | [11] 92 % of control | [3] 102 % of control | [12] 97 % of control | [4] 97 % of control | [13] 95 % of control | [14] 97 % of control

CCCCCCCCC(=O)NCCCOC
inactive: [9] 107 % of control | dose: 200.0 mg/kg/injection, schedule: Q04DX003 (ip), vehicle: Klucel (hydroxypropylcellulose) (HPC) 101 % of control | dose: 400.0 mg/kg/injection, schedule: Q04DX003 (ip), vehicle: Klucel (hydroxypropylcellulose) (HPC) 93 % of control

CC(C)=CCC(O)C1=CC(=O)c2c(O)ccc(O)c2C1=O (centres undefined)
inactive: dose: 1.25 mg/kg/injection, schedule: Q01DX009 (ip), vehicle: Klucel (hydroxypropylcellulose) (HPC) 107 % of control | dose: 2.5 mg/kg/injection, schedule: Q01DX009 (ip), vehicle: Klucel (hydroxypropylcellulose) (HPC) 102 % of control | [15] 92 % of control | [16] 87 % of control

CCCCOCN(COCCCC)C(C)Cc1ccccc1 (centres undefined)
inactive: [5] 95 % of control and 100 % of control | [6] 98 % of control and 104 % of control | [7] 99 % of control and 105 % of control | [8] 106 % of control and 110 % of control | dose: 200.0 mg/kg/injection, schedule: Q01DX009 (ip), vehicle: saline with Tween-80 90 % of control and 100 % of control

COc1cc(OC)c(OC)cc1/C=C\c1ccc2ccccc2[n+]1C
inactive: dose: 6.25 mg/kg/injection, schedule: Q01DX009 (ip), vehicle: saline 93 % of control | [17] 100 % of control | [18] 97 % of control

CC(=O)Nc1cccc(OCCCOc2cccc(C(=N)N)c2)c1
inactive: dose: 9.37 mg/kg/injection, schedule: Q04DX003 (ip), vehicle: Klucel (hydroxypropylcellulose) (HPC) 102 % of control | dose: 18.75 mg/kg/injection, schedule: Q04DX003 (ip), vehicle: Klucel (hydroxypropylcellulose) (HPC) 100 % of control | dose: 37.5 mg/kg/injection, schedule: Q04DX003 (ip), vehicle: Klucel (hydroxypropylcellulose) (HPC) 97 % of control | [3] 102 % of control | [4] 86 % of control

C1CCC(C2OCCO2)CC1
inactive: [12] 90 % of control | [19] 113 % of control | [13] 95 % of control | dose: 200.0 mg/kg/injection, schedule: Q01DX009 (ip), vehicle: saline 97 % of control | [14] 90 % of control

ClCCN(CCCl)CCCN1c2ccccc2Sc2ccc(Cl)cc21
inactive: dose: 3.12 mg/kg/injection, schedule: Q01DX009 (ip), vehicle: saline with Tween-80 120 % of control | [5] 120 % of control | [6] 117 % of control

Cc1ccn2ncnc2c1
inactive: dose: 50.0 mg/kg/injection, schedule: Q01DX009 (ip), vehicle: saline 89 % of control | [19] 86 % of control

[O-][n+]1c(CCl)nc2cccc3c2c1-c1ccccc1-3
inactive: [6] 101 % of control | [7] 96 % of control | [8] 90 % of control

NC(=O)c1ccccc1NC(=O)c1ccccc1Cl
inactive: [4] 100 % of control | dose: 200.0 mg/kg/injection, schedule: Q01DX009 (ip), vehicle: Klucel (hydroxypropylcellulose) (HPC) 97 % of control | dose: 400.0 mg/kg/injection, schedule: Q01DX009 (ip), vehicle: Klucel (hydroxypropylcellulose) (HPC) 102 % of control

O=C(NN=C1CCCCC1)c1ccccc1
inactive: dose: 18.75 mg/kg/injection, schedule: Q01DX009 (ip), vehicle: saline with Tween-80 97 % of control | [20] 100 % of control | dose: 75.0 mg/kg/injection, schedule: Q01DX009 (ip), vehicle: saline with Tween-80 105 % of control and 107 % of control

O=C(COc1ccc(Cl)cc1)Nc1cccc(C(F)(F)F)c1
inactive: [15] 117 % of control | dose: 9.4 mg/kg/injection, schedule: Q01DX009 (ip), vehicle: saline with Tween-80 93 % of control | [16] 101 % of control | [20] 90 % of control and 91 % of control

C[CH2][Pb]([CH2]C)([CH2]C)[O]C(=O)COc1ccccc1
inactive: dose: 1.5 mg/kg/injection, schedule: Q01DX009 (ip), vehicle: saline with Tween-80 104 % of control | dose: 3.0 mg/kg/injection, schedule: Q01DX009 (ip), vehicle: saline with Tween-80 107 % of control | dose: 6.25 mg/kg/injection, schedule: Q01DX009 (ip), vehicle: saline with Tween-80 108 % of control

Clc1ccc(CN2COc3c(ccc4cccnc34)C2)cc1Cl
inactive: [6] 106 % of control | [7] 108 % of control | [8] 107 % of control

C=C1CCN(c2ccc(F)cc2)C1=O
inactive: dose: 4.0 mg/kg/injection, schedule: Q01DX009 (ip), vehicle: saline + alcohol 104 % of control | dose: 16.0 mg/kg/injection, schedule: Q01DX009 (ip), vehicle: saline + alcohol 100 % of control | dose: 32.0 mg/kg/injection, schedule: Q01DX009 (ip), vehicle: saline + alcohol 112 % of control | dose: 64.0 mg/kg/injection, schedule: Q01DX009 (ip), vehicle: saline + alcohol 110 % of control

O=C(O)C(O)C(O)C(=O)O.O=C(O)C(O)C(O)C(=O)O.[O]=[V].[O]=[V] (centres undefined)
inactive: [17] 94 % of control | [10] 100 % of control | [18] 87 % of control | [11] 100 % of control | [12] 86 % of control
